{
  "source": "paper PMC8533299",
  "about": "“Synthesis, In Silico Study, and Anti-Cancer Activity of Thiosemicarbazone Derivatives” (Biomedicines, 2021)",
  "key": {"[1]": {"test_system": "gene expression in EAC cells", "test": "RT-qPCR gene expression in EAC cells", "format": "cell-based, mouse", "protocol": "(§1) Total mRNA was isolated and extracted by Trizol reagent as described in an earlier method. RevertAid First Strand cDNA synthesis kit (Thermo Fisher Scientific, Waltham, MA, USA) was used to synthesize cDNA in a total reaction volume of 20 μL containing oligo-dT primers, RiboLock RNase inhibitor, and reverse transcriptase. Gene-specific primers were used to amplify cDNAs in RT-qPCR machine (Applied Biosystems, Waltham, MA, USA)."}, "[2]": {"test_system": "mouse Ehrlich Ascites Carcinoma (EAC)", "test": "MTT test on EAC cells", "format": "cell-based", "conditions": "Mus musculus, Ehrlich; EAC cells, MTT, till 48 h", "protocol": "(§2) The in vitro anticancer activities of the synthesized compounds were conducted using different cancerous and non-cancerous cell lines viz B16-F0 (Mouse melanoma), mouse Ehrlich Ascites Carcinoma (EAC), MCF-7 (Human breast cancer), MCF-10A (Human breast epithelial cells), and NIH/3T3 (Mouse fibroblast cells). All cell lines were procured from the National Centre for Cell Science, Pune, India. The procured cells were cultured in a six-well culture plate with Dulbecco’s Modified Eagle’s Medium (DMEM) supplemented with 10% fetal bovine serum in a humid CO2 incubator with 5% carbon dioxide at 37 °C.\n(§3) The anti-cancer effect and cytotoxicity of both 3-MBTSc and 4-NBTSc compounds were evaluated against different cancerous (MCF-7, EAC, B16-F0 cells) and noncancerous cells (MCF-10A, NIH-3T3 cells) using MTT test. In brief, the stock solutions of both the tested compounds were prepared by dissolving 1 mg of each compound in 1 mL of DMSO separately. Then, four different concentrations (5, 10, 12, and 20 µg/mL) of both compounds were used during the test along with the negative control. Also, 10 μg/mL of doxorubicin (Dox) was used as the positive control during the experiment. Both untreated and treated cells were incubated for next 24 and 48 h. Then, all the steps during the whole experiment were carried out by our earlier reported procedure. Later, the absorbance values were measured by an ELISA reader (Biorad, Hercules, CA, USA) at 570 nm wavelength using secondary wavelength as a reference at 620 nm and the percentages of cell viability was calculated using the following formula [59, 60, 61]. Cell viability (%)= Mean absorbance of treated cells/Mean absorbance of untreated cells × 100\n(§4) Based on the cell viability data, the IC50 values of both compounds were calculated on different cancer cells by plotting their corresponding dose-responsive graphs.\n(§5) The obtained data were statistically analyzed. The descriptive analysis was done and the IC50 values were calculated by fitting the sigmoidal dose responsive graph using GraphPad Prism (GraphPad Software, Inc., La Jolla, CA, USA). […]"}, "[3]": {"test_system": "MCF-10A (Human breast epithelial cells)", "test": "MTT cytotoxicity test on MCF-10A cells", "format": "cell-based", "conditions": "48 h", "protocol": "as §2, §3"}, "[4]": {"test": "MTT cytotoxicity test on MCF-10A cells", "format": "cell-based, Human", "conditions": "human, MCF-10A breast epithelial cells", "protocol": "as §2, §3"}, "B16-F0 (Mouse melanoma)": {"test_system": "B16-F0 (Mouse melanoma)", "test": "MTT test on B16-F0 cells", "format": "cell-based", "conditions": "Mus musculus, B16F0; B16-F0 cells, MTT, till 48 h", "protocol": "as §2, §3, §4, §5"}, "[5]": {"test_system": "gene expression in B16-F0 melanoma cells", "test": "RT-qPCR gene expression in B16-F0 cells", "format": "cell-based, Mouse", "protocol": "as §1"}, "[6]": {"test_system": "NIH/3T3 (Mouse fibroblast cells)", "test": "MTT cytotoxicity test on NIH-3T3 cells", "format": "cell-based", "conditions": "48 h", "protocol": "as §2, §3"}, "[7]": {"conditions": "EAC cells treated, GAPDH housekeeping gene"}, "[8]": {"conditions": "EAC cells, difference of RQ values"}, "[9]": {"conditions": "B16-F0 cells treated, GAPDH housekeeping gene"}, "[10]": {"conditions": "B16-F0 cells, difference of RQ values"}},
  "note": "Several values for one entry are separate records, joined by “and”; a condition that tells them apart may be missing. Identical values can stand only once.",
  "data": [
    {"smiles": "NC(=S)N[N-][CH+]c1ccc([N+](=O)[O-])cc1", "note": "[4-NBTSc, 4-Nitrobenzaldehyde thiosemicarbazone]", "values": [
      {"measurement": "BCl2 Treated (RQ value)", "setting": "[1]; [7]", "value": "6.195 ± 0.021"},
      {"measurement": "BRCA1 Treated (RQ value)", "setting": "[1]; [7]", "value": "7.195 ± 0.021"},
      {"measurement": "Bax Treated (RQ value)", "setting": "[1]; [7]", "value": "2.945 ± 0.035"},
      {"measurement": "Caspase-3 Treated (RQ value)", "setting": "[1]; [7]", "value": "4.23 ± 0.028"},
      {"measurement": "Dmp1 Treated (RQ value)", "setting": "[1]; [7]", "value": "4.1 ± 0.014"},
      {"measurement": "Fos Treated (RQ value)", "setting": "[1]; [7]", "value": "3.095 ± 0.021"},
      {"measurement": "MTS 1 Treated (RQ value)", "setting": "[1]; [7]", "value": "1.945 ± 0.035"},
      {"measurement": "Mdm2 Treated (RQ value)", "setting": "[1]; [7]", "value": "4.955 ± 0.021"},
      {"measurement": "PKC Treated (RQ value)", "setting": "[1]; [7]", "value": "7.13 ± 0.028"},
      {"measurement": "PTEN Treated (RQ value)", "setting": "[1]; [7]", "value": "8.65 ± 0.028"},
      {"measurement": "RAS Treated (RQ value)", "setting": "[1]; [7]", "value": "3.13 ± 0.028"},
      {"measurement": "p19 Arf Treated (RQ value)", "setting": "[1]; [7]", "value": "4.605 ± 0.021"},
      {"measurement": "p21 Treated (RQ value)", "setting": "[1]; [7]", "value": "3.125 ± 0.035"},
      {"measurement": "p53 Treated (RQ value)", "setting": "[1]; [7]", "value": "3.165 ± 0.064"},
      {"measurement": "pRB Treated (RQ value)", "setting": "[1]; [7]", "value": "6.095 ± 0.035"},
      {"measurement": "BCl2 Fold Change (EAC treated-EAC untreated)", "setting": "[1]; [8]", "value": 3.105, "unit": "fold"},
      {"measurement": "BRCA1 Fold Change (EAC treated-EAC untreated)", "setting": "[1]; [8]", "value": "5.135 fold and 5.13 fold"},
      {"measurement": "Bax Fold Change (EAC treated-EAC untreated)", "setting": "[1]; [8]", "value": -0.105, "unit": "fold"},
      {"measurement": "Caspase-3 Fold Change (EAC treated-EAC untreated)", "setting": "[1]; [8]", "value": 1.33, "unit": "fold"},
      {"measurement": "Dmp1 Fold Change (EAC treated-EAC untreated)", "setting": "[1]; [8]", "value": 1.95, "unit": "fold"},
      {"measurement": "MTS 1 Fold Change (EAC treated-EAC untreated)", "setting": "[1]; [8]", "value": 0.04, "unit": "fold"},
      {"measurement": "Mdm2 Fold Change (EAC treated-EAC untreated)", "setting": "[1]; [8]", "value": -0.25, "unit": "fold"},
      {"measurement": "PTEN Fold Change (EAC treated-EAC untreated)", "setting": "[1]; [8]", "value": 7.42, "unit": "fold"},
      {"measurement": "p19 Arf Fold Change (EAC treated-EAC untreated)", "setting": "[1]; [8]", "value": 1.855, "unit": "fold"},
      {"measurement": "p21 Fold Change (EAC treated-EAC untreated)", "setting": "[1]; [8]", "value": 2.13, "unit": "fold"},
      {"measurement": "p53 Fold Change (EAC treated-EAC untreated)", "setting": "[1]; [8]", "value": 2.105, "unit": "fold"},
      {"measurement": "pRB Fold Change (EAC treated-EAC untreated)", "setting": "[1]; [8]", "value": 4.19, "unit": "fold"},
      {"measurement": "IC50", "setting": "[2]", "value": "3.832 ± 0.014", "unit": "µg/mL"},
      {"measurement": "toxicity", "setting": "[3]", "value": "less than 20%"},
      {"measurement": "viability at 48 h", "setting": "[4]", "value": "> 80", "unit": "%"},
      {"measurement": "IC50", "setting": "B16-F0 (Mouse melanoma)", "value": "7.129 ± 0.012", "unit": "µg/mL"},
      {"measurement": "BCl2 Treated (RQ value)", "setting": "[5]; [9]", "value": "2.36 ± 0.028"},
      {"measurement": "BRCA1 Treated (RQ value)", "setting": "[5]; [9]", "value": "1.94 ± 0.028"},
      {"measurement": "Bax Treated (RQ value)", "setting": "[5]; [9]", "value": "6.09 ± 0.028"},
      {"measurement": "Caspase-3 Treated (RQ value)", "setting": "[5]; [9]", "value": "5.215 ± 0.021"},
      {"measurement": "Dmp1 Treated (RQ value)", "setting": "[5]; [9]", "value": "7.19 ± 0.028"},
      {"measurement": "Fos Treated (RQ value)", "setting": "[5]; [9]", "value": "2.905 ± 0.021"},
      {"measurement": "MTS 1 Treated (RQ value)", "setting": "[5]; [9]", "value": "4.865 ± 0.021"},
      {"measurement": "Mdm2 Treated (RQ value)", "setting": "[5]; [9]", "value": "6.1 ± 0.014"},
      {"measurement": "PKC Treated (RQ value)", "setting": "[5]; [9]", "value": "7.14 ± 0.028"},
      {"measurement": "PTEN Treated (RQ value)", "setting": "[5]; [9]", "value": "6.97 ± 0.014"},
      {"measurement": "RAS Treated (RQ value)", "setting": "[5]; [9]", "value": "4.145 ± 0.035"},
      {"measurement": "p19 Arf Treated (RQ value)", "setting": "[5]; [9]", "value": "3.145 ± 0.035"},
      {"measurement": "p21 Treated (RQ value)", "setting": "[5]; [9]", "value": "4.12 ± 0.014"},
      {"measurement": "p53 Treated (RQ value)", "setting": "[5]; [9]", "value": "3.185 ± 0.021"},
      {"measurement": "pRB Treated (RQ value)", "setting": "[5]; [9]", "value": "1.06 ± 0.085"},
      {"measurement": "BCl2 Fold Change (B16-F0 treated-B16-F0 untreated)", "setting": "[5]; [10]", "value": 0.27, "unit": "fold"},
      {"measurement": "BRCA1 Fold Change (B16-F0 treated-B16-F0 untreated)", "setting": "[5]; [10]", "value": 0.14, "unit": "fold"},
      {"measurement": "Bax Fold Change (B16-F0 treated-B16-F0 untreated)", "setting": "[5]; [10]", "value": "3.355 fold and 3.35 fold"},
      {"measurement": "Caspase-3 Fold Change (B16-F0 treated-B16-F0 untreated)", "setting": "[5]; [10]", "value": 2.615, "unit": "fold"},
      {"measurement": "Dmp1 Fold Change (B16-F0 treated-B16-F0 untreated)", "setting": "[5]; [10]", "value": 4.7, "unit": "fold"},
      {"measurement": "MTS 1 Fold Change (B16-F0 treated-B16-F0 untreated)", "setting": "[5]; [10]", "value": 2.93, "unit": "fold"},
      {"measurement": "Mdm2 Fold Change (B16-F0 treated-B16-F0 untreated)", "setting": "[5]; [10]", "value": -1.14, "unit": "fold"},
      {"measurement": "PTEN Fold Change (B16-F0 treated-B16-F0 untreated)", "setting": "[5]; [10]", "value": "4.825 fold and 4.82 fold"},
      {"measurement": "p19 Arf Fold Change (B16-F0 treated-B16-F0 untreated)", "setting": "[5]; [10]", "value": 1.81, "unit": "fold"},
      {"measurement": "p21 Fold Change (B16-F0 treated-B16-F0 untreated)", "setting": "[5]; [10]", "value": 1.93, "unit": "fold"},
      {"measurement": "p53 Fold Change (B16-F0 treated-B16-F0 untreated)", "setting": "[5]; [10]", "value": 1.025, "unit": "fold"},
      {"measurement": "pRB Fold Change (B16-F0 treated-B16-F0 untreated)", "setting": "[5]; [10]", "value": -0.54, "unit": "fold"},
      {"measurement": "toxicity", "setting": "[6]", "value": "less than 20%"}
    ]}
  ]
}
